Experimental data as given in patent publication US20260184675A1, “CHIRAL ISOMERIC SULFITE COMPOUND AND APPLICATION THEREOF” (Chengdu Hanova BioSciences Co., Ltd, priority 2024, published 2026).

Test system: eggs of Tetranychus cinnabarinus
Test: Effects of sulfite compounds 1-30 and 1′-30′ on hatching of eggs of Tetranychus cinnabarinus at 100 ppm, leaf disc method
Format: in vivo
Settings: 7 days after insecticide delivery
Method: • (1) Preparation of leaf discs containing eggs: 20 female adult mites of Tetranychus cinnabarinus were transferred onto leaf discs of Vicia faba with a diameter of 2.0 cm (with wetted filter paper at the bottom), then covered it with a lidded culture dish and cultivated under moisturizing conditions, the adult mites were removed within 36 hours and microscopic examination and counting were performed on leaf discs containing eggs. • (2) Investigation of egg population base: Before pesticide soaking, a microscopic examination was conducted on the egg basic number of each leaf disc, with 2 replicates set for each treatment. • (3) Pesticide soaking treatment: The leaf butterflies loaded with mite eggs were soaked in clear water and sulfite compounds for 10 seconds, respectively, then taken out and cultivated under moisturizing conditions. Each treatment should be repeated for no less than 3 times. • (4) Cultivation and observation: The […] were cultivated under normal conditions. Five days after insecticide delivery, the hatching status of mite eggs was investigated. • Note: The temperature and humidity conditions of the constant temperature and humidity incubator after the treatment should be controlled so as to avoid excessive temperature differences, which may cause generation and dripping of condensate water in the culture dish, resulting in abnormal death of eggs due to soaking in water; it is also necessary to ensure sufficient strong ambient light, without directing irradiating the leaves. • (5) Survey of Results: The experimental materials of each treatment group were regularly hydrated and moisturized, and the hatching of eggs was observed. On the 7th day after insecticide delivery, the number of hatched eggs for each treatment was recorded, and the survey of results was recorded in the original notebook. According to the experimental requirements and characteristics of agents, the survey time can be shortened or extended.
• 1) Surveying and recording the number of hatched eggs for each treatment. • 2) Photographing and recording whether there was any pesticide damage to the leaf discs of Vicia faba. • 3) Recording the developmental status of experimental mite eggs, behavior status of nymph mites, including abnormal phenomena such as delayed or stopped development of mite eggs, difficulty in breaking hull for nymph mites, or painful struggles after hatching, etc. • (6) Calculation method: Based on the survey data, the prevention and control effect of each treatment was calculated according to the following formula, and the calculation results were kept to two decimal places. […]

## CC(COS(=O)OCCF)Oc1cc(Cl)ccc1Cl (stereo not shown) [Compound 7]
Replicate 2
  Hatching rate (%), Replicate 2: 8.15%

## CC(COc1cc(Cl)ccc1Cl)OS(=O)OCCBr (stereo not shown) [Compound 9′]
  Hatching rate (%), Replicate 3: 15.15%

## CC(C)(COS(=O)OCCBr)Oc1ccc(Cl)cc1Cl (stereo not shown) [Compound 12′]
  Hatching rate (%), Replicate 3: 10.39%

## O=C(OCCF)OC1COCC1Oc1ccc(Cl)cc1Cl (stereo not shown) [Compound 25]
  Hatching rate (%), Replicate 3: 0.00%
